# Tested on: dollar spot
# Experiment: Field trial: dollar spot counts on putting-green plots
# Format: in vivo, Sclerotinia homoeocarpa
# Details: Table 2a; combination even with half the recommended application rate of boscalid
# From the text: Studies were established in a completely randomized design with three replications. The treatments included an untreated (fertilizer only) treatment and twenty-three rate/interval combinations of Civitas™ and Emerald™. The label-recommended rates of Civitas™ application to control dollar spot on turfgrass are 8-32 oz/1000 sq.ft. The label-recommended rate of Emerald™ application to control dollar spot on turfgrass is 0.13 oz/1000 sq.ft.
# Initial treatments were made on June 16 and continued for 15 weeks (final treatments were made on September 27). […]
# Precipitation was such that supplemental irrigation was not required on a regular basis. […] Treatment differences at individual measurement events were evaluated using analysis of variance and Fisher's protected least significant difference (LSD). […]
# Applying the approach to identifying synergy as set out in S. R. Colby, “Calculating synergistic and antagonistic responses of herbicide combinations”, Weeds 15, 20-22 (1967), expected efficacy, E, may be expressed as: E=X+Y(100−X)/100, where X is the efficacy, expressed in % of the untreated control, of the first composition (boscalid), and Y is the efficacy, expressed in % of the untreated control, of the second composition (Civitas).
compound,measurement,value
"O=C(Nc1ccccc1-c1ccc(Cl)cc1)c1cccnc1Cl [boscalid, 2-chloro-N-(4′-chloro[1,1′-biphenyl]-2-yl)-nicotinamide]",sustained elimination of dollar spot,neither boscalid alone nor CIVITAS alone are capable of sustained elimination of dollar spot

# From patent US9750249B2, “Synergistic paraffinic oil and boscalid fungicides” (priority 2010, dated 2017)
